Results on 72 compounds are retold here after patent US7973069B2 (PTC Therapeutics, Inc., priority 2004, dated 2011).

Values joined by “and” are separate entries in the source; they are usually repeats but may differ in a detail not shown here. Equal entries are not always repeated. Where only a bound is given, the exact number is not on record here.

For the experiment, the system named is HCV replicon. The class given is cell-based.
The IC50 is the concentration that gives 50% inhibition. A high value points to weaker potency in that assay. With `CCCOC(=O)Nc1cccc(-c2c(C#N)c3ccc(OCCCN4CCOCC4)cc3n2CC)c1` [Compound 1034], the concentration for half-maximal inhibition (IC50) is less than 0.5 µM.
In turn, `C=CCOC(=O)Nc1ccc(-c2c(C#N)c3ccc(OCC)cc3n2C2CCC2)cc1` [Compound 981] came in with an IC50 of less than 0.5 µM.
Take `CCOc1ccc2c(C#N)c(-c3ccc(NP(=O)(OC)OC)cc3)n(C3CCC3)c2c1` [Compound 937]: the 50% inhibitory concentration (IC50) was less than 0.5 µM.
For `CCCn1c(-c2ccc(NS(C)(=O)=O)cc2)c(C#N)c2cc(OC)ccc21` [Compound 995], the IC50 is 0.5 to 2 µM.
With `COCn1c(-c2ccc(N3CCCS3(=O)=O)cc2)c(C#N)c2ccc(OC)cc21` [Compound 990], the IC50 was 0.5 to 2 µM.
The figure for `CCOc1ccc2c(C#N)c(-c3ccc(NC(=O)OC4CCC4)cc3)n(C3CCC3)c2c1` [Compound 1167] is less than 0.5 µM; for `CCCCOC(=O)Nc1ccc(-c2c(C#N)c3ccc(OC)cc3n2C2CCC2)cc1` [Compound 1077] it is less than 0.5 µM.
The compound `CCCNC(=O)Nc1ccc(-c2c(C#N)c3cc(OC)ccc3n2C2CCC2)cc1` [Compound 1162] showed a concentration for half-maximal inhibition (IC50) of 0.5 to 2 µM.
`CCCOc1ccc2c(C#N)c(-c3ccc(NC(=O)OC(C)C4CC4)cc3)n(C(C)C)c2c1` (stereo not drawn) [Compound 1242] registered a half-maximal inhibitory concentration (IC50) of less than 0.5 µM.
Compound `CCOC(=O)Nc1ccc(-c2c(C#N)c3cc(OCC)ccc3n2C2CCC2)cc1` [Compound 1193] yielded a half-inhibitory concentration (IC50) of less than 0.5 µM.
Compound `CCOc1ccc2c(C#N)c(-c3ccc(NC(=O)C4CC4)cc3)n(CC)c2c1` [Compound 897] came in with a 50% inhibitory concentration (IC50) of 0.5 to 2 µM.
`CCOc1ccc2c(C#N)c(-c3ccc(NC(=O)OCc4ccccc4)cc3)n(CC3CC3)c2c1` [Compound 1153] came in with a concentration for half-maximal inhibition (IC50) of less than 0.5 µM.
`CCCCOC(=O)Nc1ccc(-c2c(C#N)c3ccc(OC)cc3n2C2CCC2)cc1` [Compound 1075] yielded an IC50 of 0.5 to 2 µM.
As to `CCOc1ccc2c(C#N)c(-c3ccc(NC(=O)OCCN4CCOCC4)cc3)n(C3CCC3)c2c1` [Compound 1192], the IC50 fell in the range of 0.5 to 2 µM.
As for `CCNC(=O)Nc1cccc(-c2c(C#N)c3ccc(OCCCN4CCOCC4)cc3n2CC)c1` [Compound 1043], the IC50 lay within 0.5 to 2 µM.
With `CCCn1c(-c2ccc(NS(=O)(=O)C3CC3)cc2)c(C#N)c2cc(OC)ccc21` [Compound 998], the IC50 lay in the range of 0.5 to 2 µM.
Turning to `CCn1c(-c2ccc(N3CCCS3(=O)=O)cc2)c(C#N)c2ccc(OC(F)F)cc21` [Compound 1026], the IC50 is 0.5 to 2 µM and < 0.5 µM.
In turn, `N#Cc1c(-c2ccc(NC(=O)OCC3CCC3)cc2)n(C2CCC2)c2cc(OCC3CCCO3)ccc12` (stereo not drawn) [Compound 1287] showed an IC50 of less than 0.5 µM.
The figure for `CCn1c(-c2ccc(NS(=O)(=O)C3CC3)c(C)c2)c(C#N)c2ccc(OC)cc21` [Compound 962] is 0.5 to 2 µM; for `C=CCOC(=O)Nc1ccc(-c2c(C#N)c3cc(OC)c(OC)cc3n2CC)cc1` [Compound 1111] it is 0.5 to 2 µM.
Compound `CC(C)OC(=O)Nc1ccc(-c2c(C#N)c3ccc(Oc4ncccn4)cc3n2C2CCC2)cc1F` [Compound 2336] displayed an IC50 of less than 0.5 µM.
Take `CCNC(=O)Nc1ccc(-c2c(C#N)c3ccc(OC)cc3n2CC)cc1C` [Compound 966]: the half-maximal inhibitory concentration (IC50) is 0.5 to 2 µM.
As for `COc1ccc2c(c1)c(C#N)c(-c1ccc(NC(=O)OCC(C)(C)C)cc1)n2C1CCC1` [Compound 1233], the IC50 is less than 0.5 µM.
For `N#Cc1c(-c2ccc(NC(=O)OCC3CCC3)cc2)n(C2CCC2)c2cc(OCCCCN3CCCC3)ccc12` [Compound 1257], the IC50 was less than 0.5 µM.
`CCN(c1ccc(-c2c(C#N)c3ccc(C(F)(F)F)cc3n2CC)cc1)S(=O)(=O)CC` [Compound 1006]: the IC50 was < 0.5 µM and 0.5 to 2 µM.
For the compound `CCOc1ccc2c(C#N)c(-c3ccc(NC(=O)NC4CC4)cc3)n(C3CCC3)c2c1` [Compound 1191], the IC50 fell in the range of 0.5 to 2 µM.
Consider `CCOC(=O)Nc1ccc(-c2c(C#N)c3ccc(OC)cc3n2CC)cc1C` [Compound 964], for which the IC50 lay within 0.5 to 2 µM.
`CCCOC(=O)Nc1ccc(-c2c(C#N)c3ccc(OCCCN4CCOCC4)cc3n2CC)cc1` [Compound 1122]: the IC50 was less than 0.5 µM.
Consider `CCNc1ccc(-c2c(C#N)c3ccc(OCC)cc3n2C2CC2)cc1` [Compound 1311], for which the IC50 is less than 0.5 µM.
For the compound `CCOC(=O)Nc1ccc(-c2c(C#N)c3ccc(OCC)cc3n2CC2CC2)cc1` [Compound 1148], the half-maximal inhibitory concentration (IC50) is less than 0.5 µM.
`COc1ccc2c(C#N)c(-c3ccc(N4CCCS4(=O)=O)cc3)n(C3CCC3)c2c1` [Compound 1104] had an IC50 of 0.5 to 2 µM.
In turn, `CCn1c(-c2ccc(N3CCNC3=O)cc2)c(C#N)c2ccc(OCCCN3CCCC3)cc21` [Compound 1085] registered an IC50 of less than 0.5 µM.
Compound `N#Cc1c(-c2ccc(NC(=O)OC3CCC3)cc2)n(C2CCC2)c2cc(OCC3CCCO3)ccc12` (stereo not drawn) [Compound 1282] showed an IC50 of less than 0.5 µM.
Turning to `CCOc1ccc2c(C#N)c(-c3ccc(NC(=O)Cc4ccccc4)cc3)n(CC)c2c1` [Compound 900], the half-maximal inhibitory concentration (IC50) was in the range of 0.5 to 2 µM.
As for `CCn1c(-c2cccc(N3CCOC3=O)c2)c(C#N)c2ccc(OCCCN3CCOCC3)cc21` [Compound 1069], the IC50 lay in the range of 0.5 to 2 µM.
As to `CCn1c(-c2cccc(NC(=O)Oc3ccc(OC)cc3)c2)c(C#N)c2ccc(OCCCCl)cc21` [Compound 1028], the half-inhibitory concentration (IC50) is less than 0.5 µM.
In turn, `CCOc1ccc2c(c1)c(C#N)c(-c1ccc(NC(=O)OC3CCCC3)cc1)n2C1CCC1` [Compound 1199] yielded a half-maximal inhibitory concentration (IC50) of less than 0.5 µM.
The figure for `CCn1c(-c2cccc(NC(=O)NCCCl)c2)c(C#N)c2ccc(OCCCN3CCOCC3)cc21` [Compound 1036] is 0.5 to 2 µM; for `CC(C)NC(=O)Nc1ccc(-c2c(C#N)c3ccc(-c4ccccn4)cc3n2C2CCC2)cc1` [Compound 2440] it is less than 0.5 µM; for `CCNC(=O)Nc1ccc(-c2c(C#N)c3ccc(OC(F)(F)F)cc3n2CC)cc1` [Compound 892] it is 0.5 to 2 µM.
For the compound `CCCS(=O)(=O)Nc1ccc(-c2c(C#N)c3ccc(OCC)cc3n2C2CCCC2)cc1` [Compound 1140], the concentration for half-maximal inhibition (IC50) lay in the range of 0.5 to 2 µM.
On to `CC#CCOC(=O)Nc1ccc(-c2c(C#N)c3ccc(OCC)cc3n2C2CCC2)cc1` [Compound 976], for which the IC50 lay in the range of 0.5 to 2 µM.
For `CCOc1ccc2c(C#N)c(-c3ccc(NC(=O)NC(C)CC)cc3)n(C3CCC3)c2c1` (stereo not drawn) [Compound 1159], the IC50 is less than 0.5 µM.
The compound `CCOc1ccc2c(c1)c(C#N)c(-c1ccc(NC(=O)OCC(C)(C)C)cc1)n2C1CCC1` [Compound 1200] had an IC50 of less than 0.5 µM.
Consider `CCCS(=O)(=O)Nc1ccc(-c2c(C#N)c3ccc(OCC)cc3n2C2CCC2)cc1` [Compound 933], for which the IC50 is 0.5 to 2 µM.
As for `CCCOc1ccc2c(C#N)c(-c3ccc(NC(=O)NC(C)CC)cc3)n(C(C)C)c2c1` (stereo not drawn) [Compound 1324], the figure is less than 0.5 µM; as for `CCCCNC(=O)Nc1ccc(-c2c(C#N)c3ccc(OCCF)cc3n2CC)cc1` [Compound 957], less than 0.5 µM.
`CCC(C)OC(=O)Nc1ccc(-c2c(C#N)c3ccc(OC(F)F)cc3n2CC2CC2)cc1` (stereo not drawn) [Compound 1268] showed an IC50 of 0.5 to 2 µM.
Take `CCCCNC(=O)Nc1ccc(-c2c(C#N)c3ccc(OC(F)(F)F)cc3n2CC)cc1` [Compound 894]: the IC50 was in the range of 0.5 to 2 µM.
Consider `CCCNC(=O)Nc1ccc(-c2c(C#N)c3ccc(OCCF)cc3n2CC)cc1` [Compound 955], for which the IC50 is 0.5 to 2 µM and < 0.5 µM.
For the compound `CCN(CC)CCOc1ccc2c(C#N)c(-c3ccc(NC(=O)OC(C)C)cc3)n(C3CCC3)c2c1` [Compound 1278], the IC50 was less than 0.5 µM.
As for `CCn1c(-c2ccc(NS(=O)(=O)CC)cc2)c(C#N)c2ccc(OCCCN3CCOCC3)cc21` [Compound 1115], the figure is 0.5 to 2 µM; as for `CCCOC(=O)Nc1ccc(-c2c(C#N)c3ccc(OC)cc3n2COC)cc1` [Compound 993], 0.5 to 2 µM.
`CCCCOC(=O)Nc1ccc(-c2c(C#N)c3cc(OCC)ccc3n2C2CCC2)cc1` [Compound 1198] showed an IC50 of less than 0.5 µM.
The figure for `CCn1c(-c2ccc(N3CCOC3=O)cc2)c(C#N)c2ccc(OCCCCl)cc21` [Compound 1052] is 0.5 to 2 µM.
For the compound `CC(C)NC(=O)Nc1ccc(-c2c(C#N)c3ccc(OCCN(C)C)cc3n2C2CCC2)cc1` [Compound 1319], the half-inhibitory concentration (IC50) is less than 0.5 µM.
Regarding `CCn1c(-c2ccc(NC(C)=O)cc2)c(C#N)c2ccc(OC(F)(F)F)cc21` [Compound 913], the half-maximal inhibitory concentration (IC50) was 0.5 to 2 µM.
As for `CCOC(=O)Nc1ccc(-c2c(C#N)c3ccc(OCC)cc3n2C2CCCC2)cc1` [Compound 1127], the figure is less than 0.5 µM; as for `CCOc1ccc2c(C#N)c(-c3ccc(NC(=O)NC4CCCC4)cc3)n(CC3CC3)c2c1` [Compound 1173], less than 0.5 µM.
As for `COc1ccc2c(C#N)c(-c3ccc(NC(=O)NC4CCCC4)cc3)n(C3CCC3)c2c1` [Compound 1106], the figure is less than 0.5 µM; as for `CCCCOC(=O)Nc1cccc(-c2c(C#N)c3ccc(OCCCN4CCOCC4)cc3n2CC)c1` [Compound 1042], 0.5 to 2 µM; as for `CCn1c(-c2ccc(N)cc2)c(C#N)c2ccc(OC(F)F)cc21` [Compound 870], 0.5 to 2 µM.
Take `CCn1c(-c2ccc(NS(=O)(=O)C(C)C)cc2)c(C#N)c2ccc(OC(F)(F)F)cc21` [Compound 884]: the IC50 is less than 0.5 µM.
In the case of `CCn1c(-c2cccc(NS(=O)(=O)CC)c2)c(C#N)c2ccc(OCCCN3CCOCC3)cc21` [Compound 1035], the IC50 was in the range of 0.5 to 2 µM.
The compound `CCn1c(-c2ccc(NC(=O)OCCF)cc2)c(C#N)c2ccc(OCCF)cc21` [Compound 945] showed a 50% inhibitory concentration (IC50) of 0.5 to 2 µM.
As to `CCOc1ccc2c(C#N)c(-c3ccc(NC(=O)OCCF)cc3)n(CC)c2c1` [Compound 950], the concentration for half-maximal inhibition (IC50) lay in the range of 0.5 to 2 µM.
As to `CCCOC(=O)Nc1ccc(-c2c(C#N)c3ccc(OCCC)cc3n2C(C)C)cc1` [Compound 1203], the IC50 is less than 0.5 µM.
In the case of `CCn1c(-c2ccc(NC(=O)OC)cc2)c(C#N)c2ccc(OCCCCl)cc21` [Compound 1029], the half-inhibitory concentration (IC50) was 0.5 to 2 µM.
`CC(C)OC(=O)Nc1ccc(-c2c(C#N)c3ccc(OCc4ccccn4)cc3n2C2CCC2)cc1` [Compound 1220] yielded a concentration for half-maximal inhibition (IC50) of less than 0.5 µM.
The compound `CCCCn1c(-c2ccc(NC(=O)NCCC)cc2)c(C#N)c2ccc(OCC)cc21` [Compound 1066] returned an IC50 of 0.5 to 2 µM.
For the compound `C[C@@H](OC(=O)Nc1ccc(-c2c(C#N)c3ccc(Oc4cnccn4)cc3n2C2CC2)cc1)C1CC1` [Compound 2322], the IC50 was less than 0.5 µM.
With `CCn1c(-c2ccc(NS(=O)(=O)CC)cc2)c(C#N)c2ccc(C(=O)OC)cc21` [Compound 968], the half-maximal inhibitory concentration (IC50) is < 0.5 µM and 0.5 to 2 µM.
